# Source: PMC11219871, “Epigenetic-based differentiation therapy for Acute Myeloid Leukemia” (Nature Communications, 2024)
# Values joined by “and” are separate entries in the source; they are usually repeats but may differ in a detail not shown here. Equal values may be shown once.
# Tests used:
# HDAC7 = target: T1, HDAC7 (Homo sapiens, UniProt Q8WUI4); assay: HDAC assay (Eurofins); type: biochemical
# T1 construct: purchased Eurofins (contracted assay service)
# T1 sequence (Q8WUI4 1-952): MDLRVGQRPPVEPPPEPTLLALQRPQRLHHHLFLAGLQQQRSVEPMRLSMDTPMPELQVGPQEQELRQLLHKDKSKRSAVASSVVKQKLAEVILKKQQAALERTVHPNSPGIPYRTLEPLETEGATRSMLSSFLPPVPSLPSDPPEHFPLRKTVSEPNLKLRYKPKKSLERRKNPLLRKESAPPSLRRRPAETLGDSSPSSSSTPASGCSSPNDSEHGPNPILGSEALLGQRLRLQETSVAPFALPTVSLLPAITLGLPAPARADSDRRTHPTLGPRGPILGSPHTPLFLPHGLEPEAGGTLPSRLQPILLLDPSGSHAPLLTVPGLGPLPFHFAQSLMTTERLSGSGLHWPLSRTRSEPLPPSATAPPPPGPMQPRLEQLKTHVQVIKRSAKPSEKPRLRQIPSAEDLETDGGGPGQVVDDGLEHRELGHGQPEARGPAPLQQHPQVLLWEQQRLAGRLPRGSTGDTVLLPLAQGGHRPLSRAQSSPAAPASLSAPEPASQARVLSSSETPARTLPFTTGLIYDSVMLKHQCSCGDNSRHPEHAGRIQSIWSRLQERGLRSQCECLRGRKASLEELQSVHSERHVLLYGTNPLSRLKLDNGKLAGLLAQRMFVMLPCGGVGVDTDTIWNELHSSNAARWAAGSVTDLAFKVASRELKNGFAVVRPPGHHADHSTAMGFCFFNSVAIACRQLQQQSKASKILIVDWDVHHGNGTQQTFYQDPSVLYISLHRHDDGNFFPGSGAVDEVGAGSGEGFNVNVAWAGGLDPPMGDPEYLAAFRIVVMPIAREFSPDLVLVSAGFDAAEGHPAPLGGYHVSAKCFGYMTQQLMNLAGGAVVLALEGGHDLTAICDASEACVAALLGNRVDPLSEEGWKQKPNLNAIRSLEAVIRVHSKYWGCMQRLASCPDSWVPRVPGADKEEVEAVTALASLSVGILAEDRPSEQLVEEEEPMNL
# [1] = test system: MV4-11 xenograft in BALB/cA Rag2-/-γc-/- mice; assay: Subcutaneous xenograft model (tumor volume, CD11b q-PCR, H3Ac, body weight); type: in vivo, mouse; conditions: for Tumor volume: MV4-11 subcutaneous xenograft, in mm³; for Tumor volume / body weight of mice: individual mice; for body weight of mice: subcutaneous MV4-11 AML mouse model
# Experimental: (§1) The subcutaneous xenograft models of ML-2 and MV4-11 derived cells, 5 × 10^6 and 10 × 10^6 cells, respectively, diluted in 100 µL of saline solution were subcutaneously inoculated in the back left flank of female BALB/cA Rag2^−/−γc^−/− mice. When tumors became palpable, the mice were randomized into three groups: vehicle, CM-444 and CM-1758, (eight animals/group). Treatment with 10 mg/kg of CM-444 or CM-1758 i.p. was started 4 days after injection when all mice presented subcutaneous tumors and was administered for 5 consecutive days followed by 2 resting days over 3 weeks for the ML-2 model or daily for 2 weeks for the MV4-11 model. The control group received only 80% saline solution, 10% DMSO […] 10% Tween 20 (diluents of CM-444 and CM-1758). Tumor size was analyzed every 2–3 days using the following method: […], where D and d corresponded to the longest and shortest diameter, respectively. The maximal tumor size/burden permitted by the Animal Care and Ethics Committee of the University of Navarra is 2000 mm^3. This maximal tumor size/burden was not exceeded in any case. ML-2 and MV4-11 tumors were explanted for differentiation and global histone acetylation analysis. Histones were extracted, and a western blot of H3Ac was performed as described above. For the differentiation study, RNA was extracted, and q-PCR of CD11b was performed as described above (CD11b sequence primer can be found in Supplementary Table 10).
# [2] = test system: ML-2 xenograft in BALB/cA Rag2-/-γc-/- mice; assay: as above; type: in vivo, mouse; conditions: for Tumor volume: ML-2 subcutaneous xenograft, individual mice (Fig 3B), in mm³; for body weight of mice: subcutaneous ML-2 AML mouse model, individual mice
# Experimental: as §1
# hERG potassium channels = target: T2, hERG potassium channels (Homo sapiens, UniProt Q12809); assay: hERG blockade assay (whole-cell patch clamp, CHO cells); type: cell-based
# T2 construct: host or cells: CHO cells
# Experimental: This study was conducted at Wuxi (http://www.wuxi.com/), using CHO cells with stable expression of hERG potassium channels (Sophion Biosciences, Ballerup, Denmark). Cells were cultured (F12 medium, supplemented with 10% FBS, 1% Geneticin® selective antibiotic, 89 μg/mL hygromycin B) in a humidified and air-controlled (5% CO2) incubator at 37 °C ± 2 °C. Test compounds were diluted at different concentrations (0.3 μM–30μM), with a final DMSO concentration in an extracellular solution of <0.3%. The external solution consisted of 2 mM CaCl2, 1 mM MgCl2, 4 mM KCl, 145 mM NaCl, 10 mM glucose and 10 mM HEPES at pH 7.3–7.4. The internal solution consisted of 5.37 mM CaCl2, 1.75 mM MgCl2, 120 mM KCl, 10 mM HEPES, 5 mM EGTA and 4 mM Na2ATP at pH 7.2–7.3. The assay was performed at room temperature using the whole-cell patch clamp techniques controlled with Patchmaster Pro software. For quality control, minimum seal membrane resistance was set at 500 MOhms and the minimum/maximum specific hERG current (pre-compound) was 400 pA/3000 pA. A 100-nM amount of cisapride was used as the positive control to evaluate the reliability of the test system. Results are the average of two biological replicates.
# [3] = test system: HL-60, ML-2, MOLM-13 and MV4-11; assay: γ-H2AX immunofluorescence (DNA damage); type: cell-based; conditions: daily treatment 48 hours, four AML cell lines
# Experimental: authors should analyze this e.g by gH2AX immunofluorescence staining.
# As positive control, HL-60 cells irradiated with an acute dose of 30 J/m2 UV for 2 minutes were
# (see Reviewer Figure 22).
# T2 sequence (Q12809 whole entry): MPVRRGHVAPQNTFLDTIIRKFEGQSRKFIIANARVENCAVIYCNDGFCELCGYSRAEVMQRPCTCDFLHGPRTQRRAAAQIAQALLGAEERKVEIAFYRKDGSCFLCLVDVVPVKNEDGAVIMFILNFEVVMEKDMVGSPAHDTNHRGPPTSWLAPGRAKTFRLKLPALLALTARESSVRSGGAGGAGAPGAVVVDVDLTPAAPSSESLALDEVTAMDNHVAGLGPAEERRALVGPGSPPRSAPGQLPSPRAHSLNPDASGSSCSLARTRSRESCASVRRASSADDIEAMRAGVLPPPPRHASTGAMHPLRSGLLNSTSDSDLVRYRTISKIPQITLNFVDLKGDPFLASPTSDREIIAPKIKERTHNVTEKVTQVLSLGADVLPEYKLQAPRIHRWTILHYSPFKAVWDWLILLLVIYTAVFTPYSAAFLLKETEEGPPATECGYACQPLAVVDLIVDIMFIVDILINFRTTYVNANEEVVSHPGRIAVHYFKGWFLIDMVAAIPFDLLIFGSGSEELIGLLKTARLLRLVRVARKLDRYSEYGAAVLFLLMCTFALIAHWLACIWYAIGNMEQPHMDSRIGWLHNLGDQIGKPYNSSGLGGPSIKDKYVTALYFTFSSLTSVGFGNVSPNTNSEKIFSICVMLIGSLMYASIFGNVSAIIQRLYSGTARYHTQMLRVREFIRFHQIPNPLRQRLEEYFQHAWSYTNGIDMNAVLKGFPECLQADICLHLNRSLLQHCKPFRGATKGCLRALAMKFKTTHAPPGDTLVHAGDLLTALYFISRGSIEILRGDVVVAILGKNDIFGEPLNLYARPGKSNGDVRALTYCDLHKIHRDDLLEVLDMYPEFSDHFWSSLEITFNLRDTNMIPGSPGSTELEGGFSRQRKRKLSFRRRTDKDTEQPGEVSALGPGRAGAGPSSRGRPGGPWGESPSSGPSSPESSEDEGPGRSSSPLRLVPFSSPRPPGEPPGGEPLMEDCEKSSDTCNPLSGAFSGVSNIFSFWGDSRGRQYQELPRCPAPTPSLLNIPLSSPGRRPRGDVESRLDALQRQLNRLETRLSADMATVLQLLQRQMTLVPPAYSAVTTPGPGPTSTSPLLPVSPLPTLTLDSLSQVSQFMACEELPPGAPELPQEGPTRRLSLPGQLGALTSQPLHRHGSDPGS
smiles,measurement,setting,value
"COc1cc2nc(-c3cc(C)oc3C)cc(NCC3CCN(c4ncc(C(=O)NO)cn4)CC3)c2cc1OC [CM-1758, 2-[4-[[[2-(2,5-dimethyl-3-furyl)-6,7-dimethoxy-4-quinolyl]amino]methyl] -1-piperidyl]pyrimidine-5-carbohydroxamic acid]",IC50,HDAC7,0.12 µM
same,inhibition at 10 µM,HDAC7; 10 µM,89%
same,CD11b expression in explanted tumors,"[1]; MV4-11 s.c., 10 mg/kg i.p.",significant increase in CD11b expression
same,H3Ac levels in tumors,"[1]; MV4-11 s.c., 10 mg/kg i.p.",increase in H3Ac levels
same,tumor growth,"[1]; MV4-11 s.c., 10 mg/kg i.p. daily, 2 weeks",inhibited tumor growth significantly
same,Tumor volume,[1]; day 0,0
same,Tumor volume,[1]; day 7,3.017
same,Tumor volume,[1]; day 9,146.917 and 71.6651 and 143.551 and 106.303 and 28.6195 and 85.1833 and 49.7152 and 104.914 and 63.9744 and 234.732
same,Tumor volume,[1]; day 12,419.824 and 122.408 and 229.873 and 238.093 and 102.721 and 299.024 and 103.513 and 178.679 and 140.065 and 433.026
same,Tumor volume,[1]; day 14,415.95 and 158.115 and 375.793 and 401.985 and 154.443 and 348.449 and 102.044 and 262.858 and 231.325 and 547.206
same,Relative H3Ac/H3 total levels,"[1]; after in vivo treatment, subcutaneous MV4-11 mouse model, western blot, individual tumors",1.267 and 1.234 and 1.332 and 1.244 and 1.416 and 1.49
same,body weight of mice,"[1]; day 1, in g (unit assumed)",23.6 and 18.5 and 22.2 and 22.3 and 23.2 and 21.8 and 24.2 and 20.2 and 19.5 and 21.3
same,body weight of mice,[1]; day 5,21.3 and 16.3 and 21.5 (2×) and 21.2 and 22.1 and 23 and 20 (2×) and 20.2
same,body weight of mice,[1]; day 7,20.5 and 16.4 and 21.3 and 21.6 and 20.8 and 23.9 and 19.5 (2×) and 19.3 and 19.8
same,body weight of mice,"[1]; day 9, in g (unit assumed)",21 and 17.1 and 21.6 and 21.1 and 21.7 and 20.2 and 23.4 and 19.3 and 19.8 and 20.4
same,body weight of mice,"[1]; day 12, in g (unit assumed)",21.3 and 18 and 22.5 and 21.9 and 22.2 and 21.8 and 23.6 and 19.9 and 20.4 and 21.5
same,body weight of mice,[1]; day 14,21.4 and 17.3 and 21.1 and 21.6 (2×) and 21.8 and 23.6 and 20 and 20.5 and 21
same,body weight of mice,[1]; day 16,22.2 (2×) and 18.1 and 21.8 and 21.5 and 22.3 and 24.4 and 20.3 and 20.9 and 21.7
same,"CD11b expression, log10 (2-ΔΔCt)","[1]; tumors of the subcutaneous MV4-11 model, q-PCR, individual tumors",0.854 and 1.2584 and 2.36 and 1.145 and 1.034
same,CD11b expression in explanted tumors,"[2]; ML-2 s.c., 10 mg/kg i.p.",significant increase in CD11b expression
same,H3Ac levels in tumors,"[2]; ML-2 s.c., 10 mg/kg i.p.",increase in H3Ac levels
same,tumor growth,"[2]; ML-2 s.c., 10 mg/kg i.p., 5 days on/2 off, 3 weeks",inhibited tumor growth significantly
same,Tumor volume,[2]; day 0,0
same,Tumor volume,[2]; day 8,47.3386 and 22.9378 and 56.1402 and 38.666 and 38.4941 and 0 and 12.669 and 19.4742
same,Tumor volume,[2]; day 11,71.6377 and 35.2331 and 55.0976 and 24.3685 and 43.9734 and 8.639 and 15.4625 and 6.7915
same,Tumor volume,[2]; day 13,158.593 and 184.271 and 192.133 and 111.517 and 131.043 and 16.1706 and 35.0775 and 32.6327
same,Tumor volume,[2]; day 15,338.357 and 436.616 and 344.697 and 149.062 and 276.144 and 73.6819 and 103.063 and 52.9756
same,Tumor volume,[2]; day 18,450.141 and 971.066 and 667.169 and 309.135 and 557.655 and 200.834 and 266.198 and 84.0917
same,Tumor volume,[2]; day 20,750.162 and 778.307 and 425.752 and 619.516 and 424.823 and 364.169 and 387.08 and 367.037
same,Relative H3Ac/H3 total levels,"[2]; after in vivo treatment, subcutaneous ML-2 mouse model, western blot, individual tumors",1.2836 and 1.288 and 1.719 and 8.364 and 1.323 and 1.1332
same,body weight of mice,"[2]; day 4, in g (unit assumed)",23.8 and 22.2 and 25.1 and 23.3 and 24.6 and 21 and 23.7 and 24.3
same,body weight of mice,"[2]; day 6, in g (unit assumed)",23 and 20.6 and 24.5 and 22.4 and 23.6 and 21.2 and 22.8 and 24.2
same,body weight of mice,[2]; day 8,22.9 (2×) and 20.3 and 23.8 and 22.4 and 21.2 and 22 and 23.5
same,body weight of mice,"[2]; day 11, in g (unit assumed)",23 and 22.4 and 24.2 and 23.7 and 23.9 and 21.1 and 23.2 and 25.2
same,body weight of mice,[2]; day 13,23 (2×) and 21.6 and 24.6 and 24 and 23.4 and 22 and 25.4
same,body weight of mice,[2]; day 15,22.8 and 22 and 24.5 and 23.6 (2×) and 20.9 and 22.4 and 24.7
same,body weight of mice,"[2]; day 18, in g (unit assumed)",22.9 and 21.9 and 23.9 and 24 and 22.8 and 20.8 and 21.6 and 24.1
same,body weight of mice,[2]; day 20,22.1 and 20.8 (2×) and 23.3 (2×) and 19.4 and 19.9 and 23.7
same,CD11b expression from tumors measured by q-PCR,"[2]; tumors of the subcutaneous ML-2 model, individual tumors (Fig 3C)",1.158 log10 (2-ΔΔCt) and 2.588 log10 (2-ΔΔCt) and 4.58 log10 (2-ΔΔCt) and 3.25 log10 (2-ΔΔCt) and 2.2558 log10 (2-ΔΔCt)
same,hERG hill slope,hERG potassium channels,0.99
same,IC50,hERG potassium channels; read-out: hERG binding: IC50,4.89 µM
same,DNA damage (γ-H2AX),[3],do not induced DNA damage
